Results from patent US20070128217A1 (priority 2003, published 2007).

Tests used:
[1] = tested on: antibodies in sera from SARS patients (sera 1a, 1b, 2, 6, 37, 62, London, SARS-yellow, SARS-green); format: binding, human; parameters: Binding of serum 6 to linear peptides of protein X1 of SARS-CoV Urbani / Binding of serum 37 to linear peptides of protein X1 of SARS-CoV Urbani / Binding of serum 6 to looped/cyclic peptide (PEPSCAN-ELISA) / Binding of serum 37 to looped/cyclic peptide (PEPSCAN-ELISA) / Binding of serum 37 to looped/cyclic peptides of protein X1 of SARS-CoV Urbani / Binding of serum 6 to linear peptides of protein X2 / Binding of serum 37 to linear peptides of protein X2 / Binding of serum 37 to looped/cyclic peptides of protein X2 of SARS-CoV Urbani / Binding of serum 6 to linear peptides of protein M of SARS-CoV Urbani / Binding of serum 37 to linear peptides of protein M of SARS-CoV Urbani / Binding of serum 6 to looped/cyclic peptides of protein M of SARS-CoV Urbani / Binding of serum 37 to looped/cyclic peptides of protein M of SARS-CoV Urbani / Binding of serum 6 to linear peptides of protein X3 of SARS-CoV Urbani / Binding of serum 37 to linear peptides of protein X3 of SARS-CoV Urbani / Binding of serum 37 to looped/cyclic peptides of protein X3 of SARS-CoV Urbani / Binding of serum 6 to linear peptides of protein X4 of SARS-CoV Urbani / Binding of serum 37 to linear peptides of protein X4 of SARS-CoV Urbani / Binding of serum 37 to looped/cyclic peptides of protein X4 of SARS-CoV Urbani / Binding of serum 6 to linear peptides of protein X5 of SARS-CoV Urbani / Binding of serum 37 to linear peptides of protein X5 of SARS-CoV Urbani / Binding of serum 37 to looped/cyclic peptides of protein X5 of SARS-CoV Urbani / Binding of serum 6 to linear peptides of protein N of SARS-CoV Urbani / Binding of serum 37 to linear peptides of protein N of SARS-CoV Urbani / Binding of serum 6 to linear peptide (PEPSCAN-ELISA) / Binding of serum 1a to looped/cyclic peptides of protein N of SARS-CoV Urbani / Binding of serum 1b to looped/cyclic peptides of protein N of SARS-CoV Urbani / Binding of serum 2 to looped/cyclic peptides of protein N of SARS-CoV Urbani / Binding of serum 6 to looped/cyclic peptides of protein N of SARS-CoV Urbani / Binding of serum 37 to looped/cyclic peptides of protein N of SARS-CoV Urbani / Binding of serum 62 to looped/cyclic peptides of protein N of SARS-CoV Urbani / Binding of serum London to looped/cyclic peptides of protein N of SARS-CoV Urbani / Binding of serum SARS-green to looped/cyclic peptides of protein N of SARS-CoV Urbani: unit not given here
[2] = tested on: rabbit serum obtained by immunizing a rabbit with the SARS-CoV strain Frankfurt 1; format: binding; parameters: Binding of a rabbit serum to linear peptides / Binding of a rabbit serum to looped peptides / Rabbit serum linear peptides / Rabbit serum looped peptides / Binding of a rabbit serum to linear peptides of protein N of SARS-CoV Urbani (Rabbit serum linear peptides) / Binding of a rabbit serum to looped/cyclic peptides of protein N of SARS-CoV Urbani (Rabbit serum looped peptides): unit not given here
[3] = tested on: recombinant human anti-SARS-CoV antibody 03-018; format: binding; parameters: Binding of antibody 03-018 to linear peptides of the N protein of SARS-CoV Urbani / Binding of antibody 03-018 to looped/cyclic peptides of the N protein of SARS-CoV Urbani: unit not given here
[4] = tested on: control sera (pooled serum of ten healthy LUMC hospital workers; commercial negative donor pooled serum from the Dutch bloodbank); format: binding, human; parameters: Binding of Control serum LUMC to linear peptides / Binding of Control serum Blood-bank to linear peptides / Binding of Control serum LUMC to looped peptides / Binding of Control Serum Blood-Bank to Looped peptides / Binding of Control serum LUMC to linear peptides of the protein M of SARS-CoV Urbani / Binding of Control serum Blood-bank to linear peptides of the protein M of SARS-CoV Urbani / Binding of Control serum LUMC to looped peptides of the protein M of SARS-CoV Urbani / Binding of Control Serum Blood-Bank to Looped peptides of the protein M of SARS-CoV Urbani: unit not given here

## STPGSSRGNSPARMA
[1]
  Binding of serum 1a to linear peptide (PEPSCAN-ELISA): 0.5
  Binding of serum 1a to looped/cyclic peptides of protein N of SARS-CoV Urbani: 0.3
  Binding of serum 1b to linear peptide (PEPSCAN-ELISA): 0.3
  Binding of serum 1b to looped/cyclic peptides of protein N of SARS-CoV Urbani: 0.2
  Binding of serum 2 to linear peptide (PEPSCAN-ELISA): 0.4
  Binding of serum 2 to looped/cyclic peptides of protein N of SARS-CoV Urbani: 0.4
  Binding of serum 6 to linear peptide (PEPSCAN-ELISA): 0.3
  Binding of serum 6 to looped/cyclic peptides of protein N of SARS-CoV Urbani: 0.4
  Binding of serum 37 to linear peptide (PEPSCAN-ELISA): 0.7
  Binding of serum 37 to looped/cyclic peptides of protein N of SARS-CoV Urbani: 0.6
  Binding of serum 62 to linear peptide (PEPSCAN-ELISA): 0.8
  Binding of serum 62 to looped/cyclic peptides of protein N of SARS-CoV Urbani: 0.5
  Binding of serum London to linear peptide (PEPSCAN-ELISA): 0.5
  Binding of serum London to looped/cyclic peptides of protein N of SARS-CoV Urbani: 0.5
  Binding of serum SARS-green to linear peptide (PEPSCAN-ELISA): 0.8
  Binding of serum SARS-green to looped/cyclic peptides of protein N of SARS-CoV Urbani: 0.2
  Binding of serum SARS-yellow to linear peptide (PEPSCAN-ELISA): 0.7
  Binding of serum SARS-yellow to looped/cyclic peptides of protein N of SARS-CoV Urbani: 0.5
[2]
  Recognition of the peptide by the rabbit serum: recognized
[3]
  Binding of antibody 03-018 to linear peptides of the N protein of SARS-CoV Urbani: 0.1
  Binding of antibody 03-018 to looped/cyclic peptides of the N protein of SARS-CoV Urbani: 0.2

## YSHLLLVAAGMEAQF
[1]
  Binding of serum 1a to linear peptides of protein X1 of SARS-CoV Urbani: 0.7
  Binding of serum 1a to looped/cyclic peptide (PEPSCAN-ELISA): 0.4
  Binding of serum 1b to linear peptides of protein X1 of SARS-CoV Urbani: 0.6
  Binding of serum 1b to looped/cyclic peptide (PEPSCAN-ELISA): 0.4
  Binding of serum 2 to linear peptides of protein X1 of SARS-CoV Urbani: 0.5
  Binding of serum 2 to looped/cyclic peptide (PEPSCAN-ELISA): 0.5
  Binding of serum 6 to linear peptides of protein X1 of SARS-CoV Urbani: 0.5
  Binding of serum 6 to looped/cyclic peptide (PEPSCAN-ELISA): 0.3
  Binding of serum 37 to linear peptides of protein X1 of SARS-CoV Urbani: 0.6
  Binding of serum 37 to looped/cyclic peptide (PEPSCAN-ELISA): 0.7
  Binding of serum 62 to linear peptides of protein X1 of SARS-CoV Urbani: 0.7
  Binding of serum 62 to looped/cyclic peptide (PEPSCAN-ELISA): 0.5
  Binding of serum London to linear peptides of protein X1 of SARS-CoV Urbani: 0.3
  Binding of serum London to looped/cyclic peptide (PEPSCAN-ELISA): 0.3
  Binding of serum SARS-green to linear peptides of protein X1 of SARS-CoV Urbani: 0.3
  Binding of serum SARS-green to looped/cyclic peptide (PEPSCAN-ELISA): 0.5
  Binding of serum SARS-yellow to linear peptides of protein X1 of SARS-CoV Urbani: 0.4
  Binding of serum SARS-yellow to looped/cyclic peptide (PEPSCAN-ELISA): 0.3
[4]
  Binding of Control Serum Blood-Bank to Looped peptides: 0.4
  Binding of Control serum Blood-bank to linear peptides: 0.6
  Binding of Control serum LUMC to linear peptides: 0.5
  Binding of Control serum LUMC to looped peptides: 0.6
[2]
  Binding of a rabbit serum to linear peptides: 0.1
  Binding of a rabbit serum to looped peptides: 0.4

## YSNRNRFLYIIKLVF
[1]
  Binding of serum 1a to linear peptides of protein M of SARS-CoV Urbani: 0.7
  Binding of serum 1b to linear peptides of protein M of SARS-CoV Urbani: 0.5
  Binding of serum 2 to linear peptides of protein M of SARS-CoV Urbani: 0.6
  Binding of serum 6 to linear peptides of protein M of SARS-CoV Urbani: 0.3
  Binding of serum 37 to linear peptides of protein M of SARS-CoV Urbani: 0.7
  Binding of serum 62 to linear peptides of protein M of SARS-CoV Urbani: 0.7
  Binding of serum London to linear peptides of protein M of SARS-CoV Urbani: 0.3
  Binding of serum SARS-green to linear peptides of protein M of SARS-CoV Urbani: 0.3
  Binding of serum SARS-yellow to linear peptides of protein M of SARS-CoV Urbani: 0.1
  Recognition of the peptide by sera of SARS-CoV infected individuals, and form (linear, looped/cyclic) in which it is recognized: recognized in looped/cyclic form
[4]
  Binding of Control Serum Blood-Bank to Looped peptides of the protein M of SARS-CoV Urbani: 0.6
  Binding of Control serum Blood-bank to linear peptides of the protein M of SARS-CoV Urbani: 0.7
  Binding of Control serum LUMC to linear peptides of the protein M of SARS-CoV Urbani: 0.4
  Binding of Control serum LUMC to looped peptides of the protein M of SARS-CoV Urbani: 0.9
[2]
  Rabbit serum linear peptides: 0.4
  Rabbit serum looped peptides: 0.5

## YSTAWLCALGKVLPF
[1]
  Binding of serum 1a to linear peptides of protein X5 of SARS-CoV Urbani: 0.7
  Binding of serum 1a to looped/cyclic peptides of protein X5 of SARS-CoV Urbani: 0.5
  Binding of serum 1b to linear peptides of protein X5 of SARS-CoV Urbani: 0.6
  Binding of serum 1b to looped/cyclic peptides of protein X5 of SARS-CoV Urbani: 0.3
  Binding of serum 2 to linear peptides of protein X5 of SARS-CoV Urbani: 0.7
  Binding of serum 2 to looped/cyclic peptides of protein X5 of SARS-CoV Urbani: 0.5
  Binding of serum 6 to linear peptides of protein X5 of SARS-CoV Urbani: 0.6
  Binding of serum 6 to looped/cyclic peptides of protein X5 of SARS-CoV Urbani: 0.6
  Binding of serum 37 to linear peptides of protein X5 of SARS-CoV Urbani: 0.6
  Binding of serum 37 to looped/cyclic peptides of protein X5 of SARS-CoV Urbani: 0.5
  Binding of serum 62 to linear peptides of protein X5 of SARS-CoV Urbani: 0.8
  Binding of serum 62 to looped/cyclic peptides of protein X5 of SARS-CoV Urbani: 0.8
  Binding of serum London to linear peptides of protein X5 of SARS-CoV Urbani: 0.8
  Binding of serum London to looped/cyclic peptides of protein X5 of SARS-CoV Urbani: 0.4
  Binding of serum SARS-green to linear peptides of protein X5 of SARS-CoV Urbani: 0.5
  Binding of serum SARS-green to looped/cyclic peptides of protein X5 of SARS-CoV Urbani: 0.2
  Binding of serum SARS-yellow to linear peptides of protein X5 of SARS-CoV Urbani: 0.4
  Binding of serum SARS-yellow to looped/cyclic peptides of protein X5 of SARS-CoV Urbani: 0.9
[4]
  Binding of Control Serum Blood-Bank to Looped peptides: 0.4
  Binding of Control serum Blood-bank to linear peptides: 0.8
  Binding of Control serum LUMC to linear peptides: 0.5
  Binding of Control serum LUMC to looped peptides: 0.5
[2]
  Rabbit serum linear peptides: 0.7
  Rabbit serum looped peptides: 1.0

## YYQLESTQITTDTGI
[1]
  Binding of serum 1a to linear peptides of protein X1 of SARS-CoV Urbani: 0.7
  Binding of serum 1a to looped/cyclic peptides of protein X1 of SARS-CoV Urbani: 0.4
  Binding of serum 1b to linear peptides of protein X1 of SARS-CoV Urbani: 0.7
  Binding of serum 1b to looped/cyclic peptides of protein X1 of SARS-CoV Urbani: 0.3
  Binding of serum 2 to linear peptides of protein X1 of SARS-CoV Urbani: 0.4
  Binding of serum 2 to looped/cyclic peptides of protein X1 of SARS-CoV Urbani: 0.2
  Binding of serum 6 to linear peptides of protein X1 of SARS-CoV Urbani: 0.5
  Binding of serum 6 to looped/cyclic peptides of protein X1 of SARS-CoV Urbani: 0.2
  Binding of serum 37 to linear peptides of protein X1 of SARS-CoV Urbani: 0.7
  Binding of serum 37 to looped/cyclic peptides of protein X1 of SARS-CoV Urbani: 0.5
  Binding of serum 62 to linear peptides of protein X1 of SARS-CoV Urbani: 0.5
  Binding of serum 62 to looped/cyclic peptides of protein X1 of SARS-CoV Urbani: 0.4
  Binding of serum London to linear peptides of protein X1 of SARS-CoV Urbani: 0.2
  Binding of serum London to looped/cyclic peptides of protein X1 of SARS-CoV Urbani: 0.2
  Binding of serum SARS-green to linear peptides of protein X1 of SARS-CoV Urbani: 0.2
  Binding of serum SARS-green to looped/cyclic peptides of protein X1 of SARS-CoV Urbani: 0.3
  Binding of serum SARS-yellow to linear peptides of protein X1 of SARS-CoV Urbani: 0.3
  Binding of serum SARS-yellow to looped/cyclic peptides of protein X1 of SARS-CoV Urbani: 0.3
[4]
  Binding of Control Serum Blood-Bank to Looped peptides: 0.4
  Binding of Control serum Blood-bank to linear peptides: 0.4
  Binding of Control serum LUMC to linear peptides: 0.5
  Binding of Control serum LUMC to looped peptides: 0.4
[2]
  Binding of a rabbit serum to linear peptides: 0.1
  Binding of a rabbit serum to looped peptides: 0.6
